# According to patent publication US12528774B2, “Thiosemicarbazone compounds and uses thereof” (The Regents of the University of California, priority 2019, dated 2026):
# System: 143 BTK WT cells
# Assay: Cell cycle analysis in 143 BTK WT cells
# Format: cell-based
# Conditions: HCT13 + Cu(II) 20 μM
# Method: FIG. 3A: Mito Stress Test of MIAPACA2 PDAC cells treated with HCT13 (25 nM)+Cu(II) (20 μM) for 24h. FIG. 3B: electron flow assay in isolated mitochondria treated with HCT-13 (100 nM)+Cu(II) (20 μM) for 1h. FIG. 3C: viability of 143 BTK parental (wild type, WT) and ρ0 cells after 48h of the indicated HCT13 concentration+Cu(II) (20 μM) treatment, assessed with Trypan Blue Staining. FIG. 3D: 48h cell cycle histogram and plots of S-phase arrest plots in 143 BTK WT and 143 BTK ρ0 cells at 24, 48 and 72h following treatment with indicated concentrations of HCT13+Cu(II)(20 μM). (mean±SD, n=2, one-way ANOVA corrected for multiple comparisons by Bonferroni adjustment, * P<0.05; ** P<0.01; *** P<0.001).
# Another HCT compound, Dp44mT, was reported to increase AMPK expression and induce ROS, although its cytotoxicity was not attributed to the functionality of the mitochondria. (Ref 50). To determine whether the cytotoxicity of HCT13 was mitochondria-dependent, its effects upon 143 BTK ρ0, an mtDNA-deficient fibroblast cell line, was examined. Both 143 BTK ρ0 and parental (wild type, WT) cells were treated with HCT13+20 μM Cu(II) for 48 hours, after which cell viability was determined through trypan blue staining (FIG. 3C).
# Cell cycle: Cell cycle was assessed using Propidium iodide staining at indicated timepoints. Cells were pulsed with EdU 1 h before collection at different time points. […]
smiles,measurement,value
"CN(C)C(=S)N/N=C/c1nccc2cc(F)ccc12 (mixture of isomers) [HCT13, (E)-2-((6-Fluoroisoquinolin-1-yl)methylene)-N,N-dimethylhydrazine-1-carbothioamide and (Z)-2-((6-Fluoroisoquinolin-1-yl)methylene)-N,N-dimethylhydrazine-1-carbothioamide]",S-phase arrest,marked S-phase arrest
